# Assay results taken from US9091678B2, “Method for identifying compounds useful for treating and/or preventing disease-associated bone loss” (priority 2008, dated 2015).
# Tested on: RAW264.7 cells
# Assay: Toxicity test on osteoclast precursors
# Assay type: cell-based
# Conditions: RAW264.7 cells grown 72 hours with 10 to 100 μM of compound, vs 0.5% DMSO control
# Experimental: The selected compounds were then tested for their toxicity on osteoclast precursors. […] RAW264.7 cells used as osteoclasts […] were allowed to grow for 72 hours with 10 to 100 μM of compound. The growth of the cells was compared to control cells which were grown with 0.5% DMSO.
row,Structure (SMILES),Concentration μM (optimal concentration which does not affect the growth of the cells) [µM]
1,"O=Cc1cn(Cc2ccc(Cl)c(Cl)c2)c2ccccc12 [Compound 35, 1-(3,4-dichlorobenzyl)-1H-indole-3-carbaldehyde]",50
2,"O=C1NC(=O)N(c2ccccc2Cl)C(=O)C1=Cc1ccccc1 [Compound 48, 5-benzylidene-1-(2-chlorophenyl)-2,4,6(1H,3H,5H)-pyrimidinetrione]",100

# Tested on: RAW264.7 cells differentiated in osteoclasts
# Assay: Toxicity test on differentiated osteoclasts (TRAP staining, morphology)
# Assay type: cell-based
# Design: key: compounds which induce the death of all the osteoclasts after 72 hours (−); compounds which induce morphological anomalies and/or death of part of the osteoclasts (+/−); +: Compounds which do not induce visible modifications of the osteoclasts
# Conditions: at the concentration given in Table 2, vs 0.5% DMSO control
# Experimental: The compounds were tested for their toxicity on differentiated osteoclasts at the concentration determined above. RAW264.7 cells differentiated in osteoclasts were allowed to grow for 72 hours in presence of the tested compounds. […] This osteoclasts specific labeling permits to visualize the cell morphology. The cell morphology was then compared to control cells which were allowed to grow in presence of 0.5% DMSO.
row,Structure (SMILES),Survival at 72 hours
1,"CCOc1ccc(NC(=O)CSc2nnc(-c3ccc(OC)cc3)o2)cc1 [Compound 3, N-(4-ethoxyphenyl)-2-{[5-(4-methoxyphenyl)-1,3,4-oxadiazol-2-yl]thio}acetamide]",+/−
2,"O=C(O)CCC(=O)N1N=C(c2ccc([N+](=O)[O-])cc2)CC1c1ccc(Br)cc1 (stereo not drawn) [Compound 4, 4-[5-(4-bromophenyl)-3-(4-nitrophenyl)-4,5-dihydro-1H-pyrazol-1-yl]-4-oxobutanoic acid]",−
3,"Cc1ccc(N(C(=O)C(Cl)(Cl)Cl)C2C=CS(=O)(=O)C2)cc1 (stereo not drawn) [Compound 5, 2,2,2-trichloro-N-(1,1-dioxido-2,3-dihydro-3-thienyl)-N-(4-methylphenyl)acetamide]",−
4,"Cc1ccc(/C=C/C(=O)Nc2ccccc2Br)o1 [Compound 6, N-(2-bromophenyl)-3-(5-methyl-2-furyl)acrylamide]",+
5,"O=C(COc1cccc2ccccc12)Nc1ccc2c(c1)OCCO2 [Compound 10, N-(2,3-dihydro-1,4-benzodioxin-6-yl)-2-(1-naphthyloxy)acetamide]",+
6,"C=C1c2ccc(C)cc2NC(=O)N1c1cccc(Cl)c1 [Compound 11, 3-(3-chlorophenyl)-7-methyl-4-methylene-3,4-dihydro-2(1H)-quinazolinone]",−
7,"O=C(COc1ccccc1Cl)Nc1cc(C(F)(F)F)ccc1Cl [Compound 12, 2-(2-chlorophenoxy)-N-[2-chloro-5-(trifluoromethyl)phenyl]acetamide]",+
8,"CCC(=O)Nc1ccc(N2CCN(C(C)=O)CC2)cc1 [Compound 13, N-[4-(4-acetyl-1-piperazinyl)phenyl]propanamide]",+
9,"Cc1cc(=O)n2ccc(CN(C)C)c(O)c2n1 [Compound 14, 8-[(dimethylamino)methyl]-9-hydroxy-2-methyl-4H-pyrido[1,2-a]pyrimidin-4-one]",+
10,"O=C1/C(=C\c2ccc([N+](=O)[O-])cc2)SC(=S)N1c1cccc(C(F)(F)F)c1 [Compound 16, 5-(4-nitrobenzylidene)-2-thioxo-3-[3-(trifluoromethyl)phenyl]-1,3-thiazolidin-4-one]",+/−
11,"CC1=NN(c2cccc(C(=O)O)c2)C(=O)/C1=C\c1cccc(Br)c1 [Compound 18, 3-[4-(3-bromobenzylidene)-3-methyl-5-oxo-4,5-dihydro-1H-pyrazol-1-yl]benzoic acid]",−
12,"O=C(Nc1cccc2nsnc12)c1ccc(Br)o1 [Compound 20, N-2,1,3-benzothiadiazol-4-yl-5-bromo-2-furamide]",−
13,"O=C(Nc1cc(Cl)cc(Cl)c1)S(=O)(=O)c1ccccc1 [Compound 21, (3,5-dichlorophenyl)[(phenylsulfonyl)carbonyl]amine]",+/−
14,"CC(=O)N1CCN(c2ccc([N+](=O)[O-])cc2Cl)CC1C (stereo not drawn) [Compound 22, 1-acetyl-4-(2-chloro-4-nitrophenyl)-2-methylpiperazine]",−
15,"COc1cccc(/C=C2/C=C(c3ccc(C)cc3)OC2=O)c1 [Compound 23, 3-(3-methoxybenzylidene)-5-(4-methylphenyl)-2(3H)-furanone]",−
16,"O=C(O)/C=C/c1ccc(-c2ccc(Cl)c(Cl)c2)o1 [Compound 24, 3-[5-(3,4-dichlorophenyl)-2-furyl]acrylic acid]",−
17,"CCOC(=O)C1=C(C)N=c2sc(=Cc3cc(Cl)c(OCC(=O)O)c(OC)c3)c(=O)n2C1c1ccccc1Cl (stereo not drawn) [Compound 25, (2-chloro-4-{[5-(2-chlorophenyl)-6-(ethoxycarbonyl)-7-methyl-3-oxo-5H-[1,3]thiazolo[3,2-a]pyrimidin-2(3H)-ylidene]methyl}-6-methoxyphenoxy)acetic acid]",−
18,"O=S(=O)(c1cccc2nsnc12)N1CCN(C(c2ccccc2)c2ccccc2)CC1 [Compound 26, 4-{[4-(diphenylmethyl)-1-piperazinyl]sulfonyl}-2,1,3-benzothiadiazole]",−
19,"CCOc1ccc(C(=O)Nc2ccc(N3CCN(C(C)=O)CC3)cc2)cc1[N+](=O)[O-] [Compound 27, N-[4-(4-acetyl-1-piperazinyl)phenyl]-4-ethoxy-3-nitrobenzamide]",+

row,Structure (SMILES),Survival at 72 hours
1,"CC(C)(C)c1cc(C2Nc3cccc4cccc(c34)N2)cc(C(C)(C)C)c1O [Compound 30, 2,6-di-tert-butyl-4-(2,3-dihydro-1H-perimidin-2-yl)phenol]",−
2,"O=C1c2ccccc2NC(c2c(Cl)cccc2Cl)N1Cc1ccccc1 (stereo not drawn) [Compound 33, 3-benzyl-2-(2,6-dichlorophenyl)-2,3-dihydro-4(1H)-quinazolinone]",−
3,"Oc1ccc(-c2nc(-c3ccccc3)c(-c3cccs3)[nH]2)cc1O [Compound 34, 4-[4-phenyl-5-(2-thienyl)-1H-imidazol-2-yl]-1,2-benzenediol]",−
4,"O=Cc1cn(Cc2ccc(Cl)c(Cl)c2)c2ccccc12 [Compound 35, 1-(3,4-dichlorobenzyl)-1H-indole-3-carbaldehyde]",−
5,"COc1ccc(NC(=O)c2ccc(N(C)S(=O)(=O)c3ccccc3)cc2)cc1OC [Compound 37, N-(3,4-dimethoxyphenyl)-4-[methyl(phenylsulfonyl)amino]benzamide]",−
6,"O=C(/C=C/c1ccc(F)cc1)Nc1ccccc1Cl [Compound 40, N-(2-chlorophenyl)-3-(4-fluorophenyl)acrylamide]",+
7,"Oc1ccccc1C(=S)N1N=C(c2ccccc2)CC1(O)C(F)(F)F (stereo not drawn) [Compound 42, 1-[(2-hydroxyphenyl)carbonothioyl]-3-phenyl-5-(trifluoromethyl)-4,5-dihydro-1H-pyrazol-5-ol]",−
8,"COc1cc([N+](=O)[O-])ccc1N=S(C)C [Compound 43, 1-[(dimethyl-lambda~4~-sulfanylidene)amino]-2-methoxy-4-nitrobenzene]",+
9,"COCCOC(=O)c1ccc(NC(=O)c2ccc(C(C)(C)C)cc2)cc1 [Compound 44, 2-methoxyethyl 4-[(4-tert-butylbenzoyl)amino]benzoate]",−
10,"COc1ccccc1NC(=O)/C(=C\c1cccs1)NC(=O)c1ccc(C(C)(C)C)cc1 [Compound 46, 4-tert-butyl-N-[1-{[(2-methoxyphenyl)amino]carbonyl}-2-(2-thienyl)vinyl]benzamide]",+
11,"Cc1ccc(/C=C/C(=O)Nc2cccc(Cl)c2Cl)o1 [Compound 47, N-(2,3-dichlorophenyl)-3-(5-methyl-2-furyl)acrylamide]",−
12,"O=C1NC(=O)N(c2ccccc2Cl)C(=O)C1=Cc1ccccc1 [Compound 48, 5-benzylidene-1-(2-chlorophenyl)-2,4,6(1H,3H,5H)-pyrimidinetrione]",+
13,"O=C(Nc1ccccc1)Nc1nnc(C23CC4CC(CC(C4)C2)C3)s1 [Compound 49, N-[5-(1-adamantyl)-1,3,4-thiadiazol-2-yl]-N′-phenylurea]",+/−
14,"CCc1nc(-c2ccccc2)nc(C)c1C [Compound 50, 4-ethyl-5,6-dimethyl-2-phenylpyrimidine]",+
15,"COc1ccc(NC(=O)c2ccccc2Cl)cc1Cl [Compound 51, 2-chloro-N-(3-chloro-4-methoxyphenyl)benzamide]",+
16,"Cc1ccc(OCc2nnc(NC(=O)Nc3ccc(Cl)c(Cl)c3)s2)cc1 [Compound 53, N-(3,4-dichlorophenyl)-N′-{5-[(4-methylphenoxy)methyl]-1,3,4-thiadiazol-2-yl}urea]",+/−
17,"O=C(/C=C/c1cccc(C(F)(F)F)c1)Nc1ccc(F)cc1 [Compound 54, N-(4-fluorophenyl)-3-[3-(trifluoromethyl)phenyl]acrylamide]",−
18,"O=C1c2ccccc2NC(c2ccccc2O)N1Cc1ccco1 (stereo not drawn) [Compound 55, 3-(2-furylmethyl)-2-(2-hydroxyphenyl)-2,3-dihydro-4(1H)-quinazolinone]",−
